In patent US20230346796A1 (priority 2010, published 2023):
Converted amounts (≈) assume the structure as drawn. “And” between values parts separate entries of the source, which are not always exact repeats. Equal entries are not always repeated. Where two headings read alike, the source gives them in different places.

Assays:
[1] = Physiologically-based population pharmacokinetic analysis of CNS 7056 (Studies CNS 7056-001 and CNS 7056-002); settings: for V3: arterial; for clearance: human, plasma, intravenous
[2] = human, in vivo
[3] = tested on: healthy volunteers and patients undergoing a colonoscopy; assay: animal or person; type: in vivo, human; settings: for EC50: Homo sapiens, read-out: EC50, theta (RSE%)
[4] = human, in vivo; remark: listed apart in the source
[5] = tested on: patients undergoing a colonoscopy; settings: for Success rate n/N (%): Phase IIb (Study CNS7056-004); for Time to ready for discharge, Mean (SD): after last injection, first of three consecutive Aldrete scores of ≥ 9; for Time to ready for discharge, Mean (SD) / Time to fully alert, Mean (SD): ITT population; for Time to fully alert, Mean (SD): first of three consecutive MOAA/S scores of 5 after the last injection; for Time to Procedure Start, mean (SD): after initial dose
procedural sedation [6] = settings: Phase II, cited from earlier work
procedural sedation [7] = settings: Phase III, cited from earlier work
[8] = Run 142S, Lung/Central, 3 compartments
[9] = Run 144S, Lung/Liver, 4 compartments
[10] = highest dose regimen (8.0/3.0 mg)
[11] = lowest dose regimen (5.0/3.0 mg)
[12] = middle dose regimen (7.0/2.0 mg)

## COC(=O)CC[C@@H]1N=C(c2ccccn2)c2cc(Br)ccc2-n2c(C)cnc21 [CNS 7056, 3-[(4S)-8-bromo-1-methyl-6-(2-pyridinyl)-4H-imidazo[1,2-a][1,4]benzodiazepin-4-yl] propionic methyl ester]
[1]; Run 128S, Lung, 3 compartments
  Blood/Plasma Cardiac Flow, theta (RSE%): 173 (3.37) l/h
  Central Volume, eta IIV (RSE%): 146.9 (52.9) %
  Central Volume, theta (RSE%): 1.71 (15.2) I
  Deep Volume(5), theta (RSE%): 23.4 (4.57) I
  Deep Volume, eta IIV (RSE%): 22.55 (9.94) %
  Inter-Tissue Clearance(4), theta (RSE%): 74.6 (3.29) I/h
  Inter-Tissue Clearance(5), theta (RSE%): 25.7 (6.18) I/h
  Peripheral Volume(4), theta (RSE%): 13.5 (9.18) I
  Peripheral Volume, eta IIV (RSE%): 50.10 (18.0) %
  Pulmonary Clearance, eta IIV (RSE%): 14.35 (6.07) %
  Pulmonary Clearance, theta (RSE%): 49.1 (2.02) I/h
[1]; Run 135S, Lung, 4 compartments
  Blood/Plasma Cardiac Flow, theta (RSE%): 174 (3.59) l/h
  Central Volume, eta IIV (RSE%): 190.2 (66.8) %
  Central Volume, theta (RSE%): 1.24 (19.3) I
  Deep Volume(5), theta (RSE%): 23.8 (4.78) I
  Deep Volume, eta IIV (RSE%): 23.44 (10.3) %
  Deeper Volume(6), theta (RSE%): 12 (20.4) I
  Inter-Tissue Clearance(4), theta (RSE%): 68.5 (5.45) I/h
  Inter-Tissue Clearance(5), theta (RSE%): 42 (5.57) I/h
  Inter-Tissue Clearance(6), theta (RSE%): 3.12 (13.2) I/h
  Peripheral Volume(4), theta (RSE%): 8.14 (12.8) I
  Peripheral Volume, eta IIV (RSE%): 71.40 (25.4) %
  Pulmonary Clearance, eta IIV (RSE%): 14.42 (6.13) %
  Pulmonary Clearance, theta (RSE%): 48.7 (2.00) I/h
[1]; [8]
  Blood/Plasma Cardiac Flow, theta (RSE%): 177 (3.54) l/h
  Central Volume, eta IIV (RSE%): 143.6 (52.2) %
  Central Volume, theta (RSE%): 1.93 (15.8) I
  Deep Volume(5), theta (RSE%): 23.1 (4.58) I
  Deep Volume, eta IIV (RSE%): 22.59 (10.0) %
  Extra-pulmonary Clearance, theta (RSE%): 8.53 (52.4) I/h
  Inter-Tissue Clearance(4), theta (RSE%): 72.4 (3.61) I/h
  Inter-Tissue Clearance(5), theta (RSE%): 25.3 (6.16) I/h
  Peripheral Volume(4), theta (RSE%): 13.4 (9.32) I
  Peripheral Volume, eta IIV (RSE%): 50.48 (18.2) %
  Pulmonary Clearance, eta IIV (RSE%): 17.12 (8.97) %
  Pulmonary Clearance, theta (RSE%): 44.5 (6.11) I/h
[1]; [9]
  Blood/Plasma Cardiac Flow, theta (RSE%): 175 (2.68) l/h
  Central Volume, eta IIV (RSE%): 368.5 (105.) %
  Central Volume, theta (RSE%): 0.834 (15.8) I
  Deep Volume(5), theta (RSE%): 22.7 (5.28) I
  Deep Volume, eta IIV (RSE%): 24.10 (10.9) %
  Deeper Volume(6), theta (RSE%): 10.9 (16.7) I
  Extra-pulmonary Clearance, theta (RSE%): 6.15 (49.7) I/h
  Inter-Tissue Clearance(4), theta (RSE%): 46.2 (7.27) I/h
  Inter-Tissue Clearance(5), theta (RSE%): 40 (5.12) I/h
  Inter-Tissue Clearance(6), theta (RSE%): 3.07 (15.1) I/h
  Peripheral Volume(4), theta (RSE%): 6.47 (13.5) I
  Peripheral Volume, eta IIV (RSE%): 90.06 (30.2) %
  Pulmonary Clearance, eta IIV (RSE%): 16.22 (7.32) %
  Pulmonary Clearance, theta (RSE%): 45.0 (4.24) I/h
[1]; 0.65 x weight/70, Geom. Mean (Typical Value)
  V3: 0.717 I
[1]; 0.65 x weight/70, Subject 1210
  V3: 0.786 I
[1]; 0.65 × weight/70, Geom. Mean (Typical Value)
  V3: 0.717 L
[1]; 0.65 × weight/70, Subject 1210
  V3: 0.786 L
[1]; both, Clearance, Geom. Mean (Typical Value)
  clearance: 819 mL/min
[1]; both, systemic clearance
  clearance: ~1000 mL/min
[1]; Clearance, Subject 1210
  clearance: 732 mL/min
[1]; modelling
  contribution of the liver to clearance: ~10%
  pulmonary extraction ratio, and first-pass metabolism: approximately 28%
[1]; peripheral, Subject 1210
  V4: 21.59 L
[1]; typical single dose 7 mg
  systemic exposure: approximately 0.12 mcg.h/ml
[2]
  V4: 21.59 I
[3]; 1 min
  EC50: 0.332 µg/mL (≈ 0.756 µM)
[3]; 2 min
  EC50: 0.325 µg/mL (≈ 0.74 µM)
[3]
  EC50: 0.369 µg/mL (≈ 0.84 µM)
[3]; in vivo
  EMAX: 5.0
  EMAX, fitted theta (RSE%): 4.88 (1.20) and 4.85 (0.87)
  EMIN (first line so headed), eta IIV (RSE%): 29.73 (15.2) and 28.87 (11.7)
  EMIN (second line so headed), eta IIV (RSE%): 94.18 (38.7)
  Hill Coefficient (γ), theta (RSE%): 3.16 (8.82) and 4.64 (8.81) and 3.92 (6.76) and 3.9 (7.10) and 3.93 (6.81)
  Hill Coefficient, eta IIV (RSE%): 54.72 (24.0) % and 57.77 (24.8) % and 50.35 (22.3) % and 51.71 (22.7) % and 48.59 (21.4) % and 59.37 (25.3) %
  Hill coefficient: 4.03 and 6.627
  Hill coefficient, eta IIV (RSE%): 53.17 (23.0) and 69.49 (30.2)
  Hill coefficient, theta (RSE%): 4.20 (7.47) and 4.62 (8.41)
  IIV for all three pharmacodynamic parameters (EC50, ke0, Hill coefficient): approximately 40%
  increase in EC50 caused by scoping-factor: 10-12%
  increase in EC50 during one- and two-minute spikes of increased MOAA/S score: approximately 30%
  ke0: 13.3 h⁻¹ and 12.17 h⁻¹
  typical Hill coefficient: 4.03
[4]
  Body weight as predictor of systemic clearance: not a statistically significant predictor
[5]; 7.0 mg initial / 2.0 mg top-ups (middle dose regimen), 40 patients
  Success rate n/N (%) (ITT): 38/40 (95.0%), p = 0.025
[5]; 5.0/3.0 mg
  Success rate n/N (%): 39/40 (97.5%)
  Time to ready for discharge, Mean (SD): 13.5 (4.83) mins
  Time to fully alert, Mean (SD): 13.3 (7.21) mins
[5]; 5.0/3.0
  Time to Procedure Start, mean (SD): 2.65 (1.42) minutes
[5]; 7.0/2.0 mg
  Success rate n/N (%): 38/40 (95.0%)
  Time to Procedure Start, mean (SD): 3.03 (2.17) minutes
  Time to ready for discharge, Mean (SD): 14.0 (6.28) mins
  Time to fully alert, Mean (SD): 11.3 (5.69) mins
[5]; 8.0/3.0 mg
  Success rate n/N (%): 37/40 (92.5%)
  Time to Procedure Start, mean (SD): 2.23 (1.44) minutes
  Time to ready for discharge, Mean (SD): 16.8 (7.54) mins
  Time to fully alert, Mean (SD): 13.6 (7.48) mins
[5]; [10]
  recovery to fully alert: 13.6 min
  time to discharge: 16.8 min
[5]; human, in vivo
  related AESIs (adverse events of special interest): 10
[5]; in vivo
  Success rate n/N (%) (ITT): 95%
  patients requiring manual or mechanical ventilation: no patient required manual or mechanical ventilation
  time to fully alert compared to Midazolam: shorter
[5]; [11]
  recovery to fully alert: 13.3 min
  time to discharge: 13.5 min
[5]; [12]
  recovery to fully alert: 11.3 min
  time to discharge: 14 min

## CC(C)c1cccc(C(C)C)c1OCOP(=O)(O)O [Fospropofol]
Procedural sedation [6]; (labelled dose)
  Success rate n/N (%): 18/26 (69.2%)
Procedural sedation [7]; 6.5 mg/kg (labelled dose)
  Success rate n/N (%): 137/158 (86.7%)

## Cc1ncc2n1-c1ccc(Cl)cc1C(c1ccccc1F)=NC2 [Midazolam, reference compound]
Procedural sedation [6]; 0.02 mg/kg
  Success rate n/N (%): 21/26 (80.8%)
[5]; 2.5/1.0 mg
  patients who did not respond to treatment and received Propofol as rescue medication: 25%
  Success rate n/N (%): 30/40 (75.0%)
  Time to Procedure Start, mean (SD): 4.80 (3.19) minutes
  Time to ready for discharge, Mean (SD): 17.1 (7.33) mins
  Time to fully alert, Mean (SD): 15.2 (7.43) mins
Procedural sedation [7]; 0.02 mg/kg
  Success rate n/N (%): 36/52 (69.2%)
